In patent US20230374035A1, “RAS INHIBITORS” (Revolution Medicines, Inc., priority 2019, published 2023):
Read-outs that look alike come from different tables or passages of the source. Each block holds one molecule with its values, some of them ahead of it.

Tests used:
NCI-H358 (K-Ras G12C) = assay: CellTiter-Glo Cell Viability Assay; assay type: cell-based; conditions: Homo sapiens, NCI-H358, 120 h; H358, 5-day treatment
KRAS G12S = KRAS G12S (Homo sapiens, UniProt P01116+P62937, G12S); assay: Disruption of BRAF RBD interaction with K-Ras (FRET / MOA assay); assay type: biochemical
KRAS G12S, sequence (P01116 1-188 isoform P01116-2 G12S): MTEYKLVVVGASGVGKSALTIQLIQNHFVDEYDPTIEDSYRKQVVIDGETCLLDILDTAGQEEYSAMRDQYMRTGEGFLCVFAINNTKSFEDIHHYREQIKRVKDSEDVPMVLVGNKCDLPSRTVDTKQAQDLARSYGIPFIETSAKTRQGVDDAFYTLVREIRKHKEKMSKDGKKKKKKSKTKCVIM
KRAS G12S, sequence (P62937 whole entry): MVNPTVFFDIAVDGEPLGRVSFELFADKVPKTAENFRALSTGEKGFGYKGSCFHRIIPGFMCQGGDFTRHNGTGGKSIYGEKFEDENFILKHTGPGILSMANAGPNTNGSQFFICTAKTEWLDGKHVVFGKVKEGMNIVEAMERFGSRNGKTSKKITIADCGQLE
Procedure: (§1) Compound is present in plate wells as a 10-point 3-fold dilution series starting at a final concentration of 30 μM. […] Compounds that facilitate disruption of a Ras:RAF complex are identified as those eliciting a decrease in the TR-FRET ratio relative to DMSO control wells.
(§2) Note—The following protocol describes a procedure for monitoring disruption of K-Ras G12C (GMP-PNP) binding to BRAF^RBD by a compound of the invention. This protocol may also be executed substituting other Ras proteins or nucleotides.
(§3) The purpose of this biochemical assay was to measure the ability of test compounds to facilitate ternary complex formation between a nucleotide-loaded K-Ras isoform and Cyclophilin A; the resulting ternary complex disrupts binding to a BRAF^RBD construct, inhibiting K-Ras signaling through a RAF effector. Data is reported as IC50 values.
(§4) Compound was present in plate wells as a 10-point 3-fold dilution series starting at a final concentration of 30 μM. […] Compounds that facilitate disruption of a K-Ras:RAF complex were identified as those eliciting a decrease in the TR-FRET ratio relative to DMSO control wells.

KRAS G13C = KRAS G13C (Homo sapiens, UniProt P01116+P62937, G13C); assay: as above; assay type: biochemical
KRAS G13C, sequence (P01116 1-188 isoform P01116-2 G13C): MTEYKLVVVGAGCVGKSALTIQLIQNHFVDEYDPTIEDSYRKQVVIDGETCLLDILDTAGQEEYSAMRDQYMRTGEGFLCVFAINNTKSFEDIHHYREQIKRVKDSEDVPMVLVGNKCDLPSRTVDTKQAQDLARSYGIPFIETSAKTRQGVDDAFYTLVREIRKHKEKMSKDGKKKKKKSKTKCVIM
KRAS G13C, sequence (P62937 whole entry): as the sequence (P62937 whole entry) above
Procedure: as §1, §2, §3, §4

KRAS Q61H = KRAS Q61H (Homo sapiens, UniProt P01116+P62937, Q61H); assay: as above; assay type: biochemical; conditions: read-out: KRAS Q61H FRET data IC50
KRAS Q61H, sequence (P01116 1-188 isoform P01116-2 Q61H): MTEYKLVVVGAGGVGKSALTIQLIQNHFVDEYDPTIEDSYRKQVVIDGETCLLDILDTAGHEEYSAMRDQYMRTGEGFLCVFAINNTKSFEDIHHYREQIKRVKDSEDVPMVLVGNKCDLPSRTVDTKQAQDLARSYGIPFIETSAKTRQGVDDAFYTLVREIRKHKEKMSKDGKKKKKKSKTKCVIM
KRAS Q61H, sequence (P62937 whole entry): as the sequence (P62937 whole entry) above
Procedure: as §1, §2, §3, §4

KRAS G12C = KRAS G12C (Homo sapiens, UniProt P01116+P62937, G12C); assay: as above; assay type: biochemical
KRAS G12C, sequence (P01116 1-188 isoform P01116-2 G12C): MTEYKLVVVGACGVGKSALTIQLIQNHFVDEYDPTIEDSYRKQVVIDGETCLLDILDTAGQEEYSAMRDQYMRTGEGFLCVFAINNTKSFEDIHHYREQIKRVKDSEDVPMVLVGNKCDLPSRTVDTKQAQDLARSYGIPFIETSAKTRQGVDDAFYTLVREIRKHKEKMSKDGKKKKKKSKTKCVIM
KRAS G12C, sequence (P62937 whole entry): as the sequence (P62937 whole entry) above
Procedure: as §1, §2, §3, §4

NRAS WT = NRAS WT (Homo sapiens, UniProt P01111+P62937); assay: Disruption of BRAF RBD interaction with Ras (FRET / MOA assay); assay type: biochemical; conditions: read-out: NRAS WT FRET data IC50
NRAS WT, sequence (P01111 whole entry): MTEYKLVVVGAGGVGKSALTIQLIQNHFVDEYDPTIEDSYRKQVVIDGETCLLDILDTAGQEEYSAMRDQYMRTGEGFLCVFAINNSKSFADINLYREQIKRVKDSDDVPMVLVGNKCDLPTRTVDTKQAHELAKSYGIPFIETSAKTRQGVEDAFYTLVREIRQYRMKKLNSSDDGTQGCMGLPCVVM
NRAS WT, sequence (P62937 whole entry): as the sequence (P62937 whole entry) above
Summary of the method: (§5)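 TR-FRET readout of BRAF RBD binding to nucleotide-loaded Ras (GMP-PNP), where compound promotes a ternary complex with Cyclophilin A that displaces RAF. Compound tested as a 10-point 3-fold dilution series from 30 μM final. Disruption is a drop in TR-FRET ratio versus DMSO wells; IC50 reported.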

NRAS Q61R = NRAS Q61R (Homo sapiens, UniProt P01111+P62937, Q61R); assay: as above; assay type: biochemical; conditions: read-out: NRAS Q61R FRET data IC50
NRAS Q61R, sequence (P01111 whole entry Q61R): as the sequence (P01111 whole entry) above, with Q61R counted along it
NRAS Q61R, sequence (P62937 whole entry): as the sequence (P62937 whole entry) above
Summary of the method: as §5

NRAS G12C = NRAS G12C (Homo sapiens, UniProt P01111+P62937, G12C); assay: as above; assay type: biochemical
NRAS G12C, sequence (P01111 whole entry G12C): as the sequence (P01111 whole entry) above, with G12C counted along it
NRAS G12C, sequence (P62937 whole entry): as the sequence (P62937 whole entry) above
Summary of the method: as §5

NRAS Q61K = NRAS Q61K (Homo sapiens, UniProt P01111+P62937, Q61K); assay: as above; assay type: biochemical; conditions: read-out: NRAS Q61K FRET data IC50
NRAS Q61K, sequence (P01111 whole entry Q61K): as the sequence (P01111 whole entry) above, with Q61K counted along it
NRAS Q61K, sequence (P62937 whole entry): as the sequence (P62937 whole entry) above
Summary of the method: as §5

AsPC-1 (K-Ras G12D) = assay: Potency assay: pERK; assay type: cell-based; conditions: Homo sapiens, ASPC1
KRAS G13D = KRAS G13D (Homo sapiens, UniProt P01116+P62937, G13D); assay: Disruption of BRAF RBD interaction with K-Ras (FRET / MOA assay); assay type: biochemical
KRAS G13D, sequence (P01116 1-188 isoform P01116-2 G13D): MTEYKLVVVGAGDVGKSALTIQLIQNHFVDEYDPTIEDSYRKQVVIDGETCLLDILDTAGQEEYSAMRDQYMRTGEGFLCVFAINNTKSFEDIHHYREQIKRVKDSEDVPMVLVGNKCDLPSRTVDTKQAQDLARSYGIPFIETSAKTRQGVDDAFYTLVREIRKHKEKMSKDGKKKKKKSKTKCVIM
KRAS G13D, sequence (P62937 whole entry): as the sequence (P62937 whole entry) above
Procedure: as §1, §2, §3, §4

KRAS G12D = KRAS G12D (Homo sapiens, UniProt P01116+P62937, G12D); assay: as above; assay type: biochemical
KRAS G12D, sequence (P01116 1-188 isoform P01116-2 G12D): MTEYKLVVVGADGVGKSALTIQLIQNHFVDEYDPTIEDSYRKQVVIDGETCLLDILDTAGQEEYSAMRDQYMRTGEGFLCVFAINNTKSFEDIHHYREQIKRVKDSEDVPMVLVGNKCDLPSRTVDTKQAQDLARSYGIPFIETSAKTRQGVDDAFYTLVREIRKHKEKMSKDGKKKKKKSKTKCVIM
KRAS G12D, sequence (P62937 whole entry): as the sequence (P62937 whole entry) above
Procedure: as §1, §2, §3, §4

KRAS G12V = KRAS G12V (Homo sapiens, UniProt P01116+P62937, G12V); assay: as above; assay type: biochemical; conditions: read-out: FRET G12V IC50
KRAS G12V, sequence (P01116 1-188 isoform P01116-2 G12V): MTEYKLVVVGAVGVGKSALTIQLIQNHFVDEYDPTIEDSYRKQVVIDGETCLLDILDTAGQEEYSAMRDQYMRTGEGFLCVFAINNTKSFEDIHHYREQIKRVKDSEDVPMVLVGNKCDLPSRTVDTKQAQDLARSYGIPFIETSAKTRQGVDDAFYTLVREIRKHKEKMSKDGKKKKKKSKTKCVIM
KRAS G12V, sequence (P62937 whole entry): as the sequence (P62937 whole entry) above
Procedure: as §1, §2, §3, §4

Capan-1 (K-Ras G12V) = assay: Potency assay: pERK; assay type: cell-based; conditions: Homo sapiens
[1] = test system: NCI-H358 cells (K-Ras G12C); assay: Potency assay: pERK; assay type: cell-based; conditions: Homo sapiens
Procedure: The purpose of this assay is to measure the ability of test compounds to inhibit K-Ras in cells. […] This procedure measures a decrease in cellular pERK in response to test compounds. The procedure described below in NCI-H358 cells is applicable to K-Ras G12C.
NCI-H358 cells were grown and maintained using media and procedures recommended by the ATCC. On the day prior to compound addition, cells were plated in 384-well cell culture plates (40 μl/well) and grown overnight in a 37° C., 5% CO2 incubator. Test compounds were prepared in 10, 3-fold dilutions in DMSO, with a high concentration of 10 mM. On day of assay, 40 nl of test compound was added to each well of cell culture plate using an Echo550 liquid handler (LabCyte®). Concentrations of test compound were tested in duplicate. […]
In some experiments, cellular pERK level was determined using the AlphaLISA SureFire Ultra p-ERK1/2 Assay Kit (PerkinElmer). […] Signal was read on an Envision plate reader (PerkinElmer) using standard AlphaLISA settings. […] Signal was plotted vs. the decadal logarithm of compound concentration, and IC50 was determined by fitting a 4-parameter sigmoidal concentration response model.
In other experiments, cellular pERK was determined by In-Cell Western. […] Signal was plotted vs. the decadal logarithm of compound concentration, and IC50 was determined by fitting a 4-parameter sigmoidal concentration response model.

[2] = test system: Capan-2 KRASG12V/wt xenograft model; assay: Tumor growth in Capan-2 CDX model; assay type: in vivo, BALB/c nude mice; conditions: Compound A 100 mg/kg po bid daily, RMC-4550 20 mg/kg po every other day
Procedure: Capan-2 cells were implanted in 50% Matrigel. Animals were randomized and treatment was initiated at average tumor volume of ˜180 mm3. […] Ns=no significance; ***p<0.001 by one-way ANOVA.
Once tumors reached an average size of ˜180 mm3, mice were randomized to treatment groups to start the administration of test articles or vehicle. […] Body weight and tumor volume (using calipers) was measured twice weekly until study endpoints.

- IC50 (NCI-H358 (K-Ras G12C)): < 10 nM
- IC50 (KRAS G12S): < 10 nM
- IC50 (KRAS G13C; read-out: KRAS G13C FRET data IC50): < 10 nM
- IC50 (KRAS Q61H): < 10 nM
- IC50 (KRAS G12C; read-out: KRAS G12C FRET data IC50): < 10 nM
- IC50 (NRAS WT): < 10 nM
- IC50 (NRAS Q61R): 10 to 100 nM
- IC50 (NRAS G12C): < 10 nM
- IC50 (NRAS Q61K): 10 to 100 nM
Compound: CCn1c(-c2cccnc2[C@H](C)OC)c2c3cc(ccc31)-c1cc(O)cc(c1)C[C@H](NC(=O)[C@H](C(C)C)N(C)C(=O)[C@@H]1CCN(C(=O)OC)[C@@H]1c1ccccc1)C(=O)N1CCC[C@H](N1)C(=O)OCC(C)(C)C2 (atropisomer, axis not shown) [Compound A501]

- EC50 (AsPC-1 (K-Ras G12D)): 468 nM
- IC50 (KRAS G13D): 212 nM
- IC50 (KRAS G12D): 228 nM
- IC50 (KRAS G13C; read-out: FRET G13C IC50): 91 nM
- IC50 (KRAS G12V): 3670 nM
- IC50 (KRAS G12C; read-out: FRET G12C IC50): 450 nM
- EC50 (Capan-1 (K-Ras G12V)): 413 nM
- EC50 [1]: 334 nM
Compound: CCn1c(-c2cnccc2COC)c2c3cc(ccc31)-c1cc(O)cc(c1)C[C@H](NC(=O)[C@H](C(C)C)N(C)C(=O)OC1CN(C)C1)C(=O)N1CCC[C@H](N1)C(=O)OCC(C)(C)C2 [Compound A74]

Compound: Cc1nc(N2CCC3(CC2)CO[C@@H](C)[C@H]3N)c(CO)nc1-c1cccc(Cl)c1Cl [RMC-4550]
- TGI [2]: 39%
